From US4156011A, “Sulphur- and oxygen-containing diaryl compounds” (priority 1974, dated 1979) come the findings set out here.

Structures can show the parent of a compound that is named as a salt. Where two headings read alike, the source gives them in different places.

The nature of series [1]: Solubility of the isolated product. The settings on record: for solubility in water (in words) / solubility: water.
The nature of series [2]: Reduction of lipids and cholesterol in rats treated orally. The series is classed as in vivo. The settings on record: for inhibition in vivo at 20 mg/kg / inhibition in vivo at 100 mg/kg: Rattus norvegicus, 96 h; for inhibition in vivo at 20 mg/kg: oral 20 mg/kg.
The mark [3] stands for this setting: normal diet, oral 50 mg/kg daily, 3 and 5 days.

What is called solubility is the concentration that dissolves in the medium under given conditions. A low value points to little dissolved substance.

In the case of `CC(Oc1ccccc1Sc1ccc(Cl)cc1)C(=O)OCCNCCSCCCCCCCCCCSCCNCCOC(=O)C(C)Oc1ccccc1Sc1ccc(Cl)cc1` (racemic) [CRL 40 247, 6,17-Dithia-3,20-diaza-1,22-docosanediol di-(±)-[2-(4-chlorophenylthio)phenoxy-propionate]], in series [1], the “solubility in alcohol (in words)” value is on record as “soluble in alcohol” and the “solubility in water (in words)” value was “insoluble in water”.

Molecule `CC(CNCCO)Oc1ccc(Oc2ccc(Cl)cc2)cc1.Cl` (racemic) [CRL 40 301, (±)-N-Hydroxyethyl-2-[4-(4-chlorophenoxy)-phenoxy]-1-propylamine hydrochloride] displayed a solubility in series [1] of 200 mg/mL.

`CC(CNC(C)(C)CO)Oc1ccc(Oc2ccc(Cl)cc2)cc1.Cl` (racemic) [CRL 40 302, (±)-N-(β-Hydroxy-α,α-dimethylethyl)-2-[4-(4-chlorophenoxy)-phenoxy]-1-propylamine hydrochloride] gave a solubility in series [1] of 200 mg/mL.

As for `CC(Oc1ccc(Sc2ccc(Cl)cc2)cc1)C(=O)O` (racemic) [CRL 40,246, (±)-2-[4-Chlorophenylthio)-phenoxy]-propionic acid], in series [1], the “solubility in alcohol (in words)” value is given as “soluble in alcohol” and the “solubility in water (in words)” value is recorded as “insoluble in water”.

Turning to `CC(Sc1ccc(Oc2ccc(Cl)cc2)cc1)C(=O)O` (racemic) [CRL 40,281, (±)-2-[4-(4-chlorophenoxy)-phenylthio]-propionic acid], the “solubility in water (in words)” value in series [1] is “insoluble in water”.

As to `CC(Oc1ccc(Oc2ccc(Cl)cc2)cc1)C(=O)O` (racemic) [CRL 40,299, (±)-2-[4-(4-Chlorophenoxy)-phenoxy]-propionic acid], the “solubility in water (in words)” value in series [1] is given as “insoluble in water”.

With `CC(Sc1ccc(Sc2ccc(Cl)cc2)cc1)C(=O)O` (racemic) [CRL 40,351, (±)-2-[p-(p-Chlorophenylthio)-phenylthio]-propionic acid], the “solubility in water (in words)” value in series [1] is on record as “water-insoluble”.

Consider `CC(Oc1ccc(Sc2ccc(Cl)cc2)cc1)C(=O)OCCSCCCCCCCCCCSCCOC(=O)C(C)Oc1ccc(Sc2ccc(Cl)cc2)cc1` (racemic) [CRL 40,390, 3,14-Dithia-1,16-hexadecyl di-(±)-{2-[p-(p-chlorophenylthio)-phenoxy]-propionate}], for which the inhibition in vivo at 20 mg/kg in series [2] (4 days, read-out: reduction in the cholesterol) came out at 25%; in series [2] (4 days, read-out: reduction in the lipids) it was 25%.

Regarding `CC(COC(=O)CSc1ccc(Sc2ccc(Cl)cc2)cc1)SCCCCCCCCCCSC(C)COC(=O)CSc1ccc(Sc2ccc(Cl)cc2)cc1` (racemic) [CRL 40,395, (±)-2,15-Dimethyl-3,14-dithia-1,16-hexadecyl di-[p-(p-chlorophenylthio)-phenylthio-acetate]], in series [2] (oral 100 mg/kg, 4 days), the inhibition in vivo at 100 mg/kg was determined as 27% and the “reduction in the (total) lipids” value is 18%.

Turning to `CC(Sc1ccc(Sc2ccc(Cl)cc2)cc1)C(=O)OCCSCCCCCCCCCCSCCOC(=O)C(C)Sc1ccc(Sc2ccc(Cl)cc2)cc1` (racemic) [CRL 40,398, 3,14-Dithia-1,16-hexadecyl di-(±)-{2-[p-(p-chlorophenylthio)-phenylthio]-propionate}], in series [2] (oral 100 mg/kg, 4 days), the “change in the cholesterol content (in words)” value is recorded as “no change in the cholesterol content” and the “reduction in the (total) lipids” value amounted to 17%.

For `CC(COC(=O)C(C)(C)Sc1ccc(Sc2ccc(Cl)cc2)cc1)SCCCCCCCCCCSC(C)COC(=O)C(C)(C)Sc1ccc(Sc2ccc(Cl)cc2)cc1` (racemic) [CRL 40,403, (±)-2,15-Dimethyl-3,14-dithia-1,16-hexadecyl di-{2-[p-(p-chlorophenylthio)-phenylthio]-2-methylpropionate}], in series [2] (oral 100 mg/kg, 4 days), the inhibition in vivo at 100 mg/kg was found to be 32% and the “reduction in the (total) lipids” value is given as 10%.

Turning to `CC(Sc1ccc(Oc2ccc(Cl)cc2)cc1)C(=O)OCCSCCCCCCCCCCSCCOC(=O)C(C)Sc1ccc(Oc2ccc(Cl)cc2)cc1` (racemic) [CRL 40,408, 3,14-Dithia-1,16-hexadecyl di-(±)-{2-[p-(p-chlorophenoxy)-phenylthio]-propionate}], in series [2] (oral 100 mg/kg, 4 days), the inhibition in vivo at 100 mg/kg was 20% and the “reduction in the (total) lipids” value is on record as 17%.

Take `CC(COC(=O)C(C)Sc1ccc(Oc2ccc(Cl)cc2)cc1)SCCCCCCCCCCSC(C)COC(=O)C(C)Sc1ccc(Oc2ccc(Cl)cc2)cc1` (racemic) [CRL 40,409, (±)-2,15-Dimethyl-3,14-dithia-1,16-hexadecyl di-(±)-{2-[p-(p-chlorophenoxy)-phenylthio]-propionate}]: the “reduction in the (total) lipids” value in series [2] (oral 100 mg/kg, 4 days) is on record as 9-10%.

In the case of `CC(Oc1ccc(S(=O)(=O)c2ccc(Cl)cc2)cc1)C(=O)OCCNCCSCCCCCCCCCCSCCNCCOC(=O)C(C)Oc1ccc(S(=O)(=O)c2ccc(Cl)cc2)cc1` (racemic) [CRL 40249, 6,17-Dithia-3,20-diaza-1,22-docosanediol di-(±)-2-[p-(p-chlorophenylsulphonyl)-phenoxy]-propionate], in series [1], the “solubility in alcohol (in words)” value was “insoluble in water and in alcohol”; the “solubility in water (in words)” value is on record as “insoluble in water”.

Consider `CC(COS(C)(=O)=O)Oc1ccc(Oc2ccc(Cl)cc2)cc1` (racemic) [Example 34, (±)-2-[4-(4-Chlorophenoxy)-phenoxyl]-propyl mesylate], for which, in series [1], the “solubility in water (in words)” value is “insoluble in water”.

For the molecule `CC(C)(Oc1ccc(Sc2ccc(Cl)cc2)cc1)C(=O)OCCNCCSCCCCCCCCCCSCCNCCOC(=O)C(C)(C)Oc1ccc(Sc2ccc(Cl)cc2)cc1` [CRL 40 240, 6,17-Dithia-3,20-diaza-1,22-docosanediol di-p-(p-chlorophenylthio)-phenoxy-isobutyrate], in series [1], the “solubility in alcohol (in words)” value is “soluble in alcohol” and the “solubility in water (in words)” value is “insoluble in water”.

Take `CC(C)(Oc1ccc([S+]([O-])c2ccc(Cl)cc2)cc1)C(=O)OCCNCCSCCCCCCCCCCSCCNCCOC(=O)C(C)(C)Oc1ccc([S+]([O-])c2ccc(Cl)cc2)cc1` (centres unmarked) [CRL 40 242, 6,17-Dithia-3,20-diaza-1,22-docosanediol di-[4-(4-chlorosulphinyl)-phenoxy-isobutyrate]]: in series [1], the “solubility in alcohol (in words)” value was “soluble in alcohol” and the “solubility in water (in words)” value is given as “insoluble in water”.

Regarding `CC(C)(Oc1ccc(Sc2ccc(Cl)cc2)cc1)C(=O)N(CCO)CCSCCCCCCCCCCSCCN(CCO)C(=O)C(C)(C)Oc1ccc(Sc2ccc(Cl)cc2)cc1` [CRL 40 254, 3,20-di[p-(p-chlorophenylthio)phenoxy-isobutyryl]-6,17-dithia-3,20-diaza-1,22-docosanediol], the “solubility in water (in words)” value in series [1] is “insoluble in water”.

For the molecule `CC(C)(Oc1ccc(Oc2ccc(Cl)cc2)cc1)C(=O)NCCO` [CRL 40 309, N-Hydroxyethyl-2-[4-(4-chlorophenoxy)-phenoxy]-2-methylpropionamide], the “solubility in water (in words)” value in series [1] was “insoluble in water”.

`CC(C)(CNCCO)Oc1ccc(Oc2ccc(Cl)cc2)cc1` [CRL 40 311, N-Ethanol-2-[4-(4-chlorophenoxy)-phenoxy]-2-methyl-1-propylamine hydrochloride]: the “solubility in water (in words)” value in series [1] is “soluble in water”.

Turning to `Cl.NC(COc1ccc(Oc2ccc(Cl)cc2)cc1)=NO` [CRL 40 337, 4-(4-Chlorophenoxy)-phenoxy-acetamidoxime hydrochloride], the “solubility in water (in words)” value in series [1] is “partially soluble in water”.

Regarding `Cl.N=C(N)COc1ccc(Oc2ccc(Cl)cc2)cc1` [CRL 40 338, 4-(4-Chlorophenoxy)-phenoxy-acetamidine hydrochloride], in series [1], the “solubility in water (in words)” value is given as “soluble in water”.

Turning to `CC(C)(Oc1ccc(S(=O)(=O)c2ccc(Cl)cc2)cc1)C(=O)O` [CRL 40,239, 4-(4-chlorophenylsulphonyl)-phenoxy-isobutyric acid], in series [1], the “solubility in alcohol (in words)” value is “soluble in alcohol” and the “solubility in water (in words)” value was “insoluble in water”.

For the molecule `CC(C)(Sc1ccc(Oc2ccc(Cl)cc2)cc1)C(=O)O` [CRL 40,275, 4-(4-chlorophenoxy)-phenylthio-isobutyric acid], the “solubility in water (in words)” value in series [1] is reported as “insoluble in water”.

Regarding `CC(C)(CNCCO)Sc1ccc(Oc2ccc(Cl)cc2)cc1` [CRL 40,279, N-Hydroxyethyl-4-(4-chlorophenoxy)phenylthio-isobutylamine], in series [1], the “solubility in water (in words)” value is “insoluble in water”.

With `O=C(CSc1ccc(Oc2ccc(Cl)cc2)cc1)OCCSCCCCCCCCCCSCCOC(=O)CSc1ccc(Oc2ccc(Cl)cc2)cc1` [CRL 40,284, 3,14-Dithia-1,16-hexadecyl di-[p-(p-chlorophenoxy)-phenylthio-acetate]], the “solubility in water (in words)” value in series [1] is “water-insoluble”.

Take `CC(C)(Oc1ccc(Oc2ccc(Cl)cc2)cc1)C(=O)O` [CRL 40,308, 4-(4-Chlorophenoxy)-phenoxy-isobutyric acid]: the “solubility in water (in words)” value in series [1] is reported as “insoluble in water”.

Consider `CC(C)(Oc1ccc(S(=O)(=O)c2ccc(Cl)cc2)cc1)C(=O)OCCNCCSCCCCCCCCCCSCCNCCOC(=O)C(C)(C)Oc1ccc(S(=O)(=O)c2ccc(Cl)cc2)cc1` [CRL 40241, 6,17-Dithia-3,20-diaza-1,22-docosanediol di-p-(p-chlorophenylsulphonyl)-phenoxy-isobutyrate], for which the “solubility in hot alcohol (in words)” value in series [1] (hot alcohol) is “soluble in hot alcohol”. Also, the “solubility in water (in words)” value in series [1] is “insoluble in water”.

Take “p-(p-Chlorophenylthio)-phenylthioacetic acid [CRL 40,386]”: in series [2] (setting [3]), the “reduction in the concentration of cholesterol in the plasma” value is “about 20%” and the “reduction in the concentration of lipids in the plasma” value is “about 20%”. For the same molecule, in series [2] (oral 100 mg/kg, 4 days), the “reduction in the (total) lipids” value was 42% and the “reduction in the cholesterol” value was determined as 26%.
